Assay results: ChEMBL document CHEMBL6121055, “Strategic Mutations in Designer Native Peptides Combat NLRP3 Inflammasome Activation in Neurodegenerative Disorders” (J Med Chem, 2025)
Activity calls are given as the source filed them. The calls are words filed in the database; no cut-off is given here. Residues, ends and D or L forms follow the SMILES beside them. *: point of attachment. Biotin = O=C1N[C@H]2[C@H](CS[C@H]2CCCCC(=O)*)N1

Columns and labels:
[1] = Cytotoxicity against mouse N9 cells assessed as reduction in cell viability at 100 uM incubated for 24 hrs by MTT assay; type: toxicity, cell-based; settings: n9, 24 h
N9 [2] = experiment: Inhibition of NLRP3 inflammasome activation mediated pyroptosis in LPS/ATP-stimulated mouse N9 cells assessed as reduction in cell death at 100 uM measured after 24 hrs by MTT assay; type: cell-based
[3] = molecular target: Apoptosis-associated speck-like protein containing a CARD (Homo sapiens, UniProt Q9ULZ3); experiment: Binding affinity to Alexa647-labeled ASC (unknown origin) assessed as dissociation constant incubated for 5 mins by fluorescence spectra based analysis
Apoptosis-associated speck-like protein containing a CARD, sequence (Q9ULZ3 whole entry): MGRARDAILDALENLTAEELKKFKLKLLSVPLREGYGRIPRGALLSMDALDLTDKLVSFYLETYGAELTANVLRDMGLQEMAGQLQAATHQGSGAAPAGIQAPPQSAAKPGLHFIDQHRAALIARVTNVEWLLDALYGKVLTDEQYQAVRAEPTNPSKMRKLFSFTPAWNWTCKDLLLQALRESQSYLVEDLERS

N9 [4] = experiment: Inhibition of NLRP3 inflammasome activation in LPS/ATP-stimulated mouse N9 cells assessed as inhibition of caspase-1 mRNA expression at 20 uM by qRT-PCR analysis; type: cell-based
N9 [5] = experiment: Inhibition of NLRP3 inflammasome activation in LPS/ATP-stimulated mouse N9 cells assessed as inhibition of IL-1beta mRNA expression at 20 uM by qRT-PCR analysis; type: cell-based
[6] = molecular target: T1, Apoptosis-associated speck-like protein containing a CARD (Mus musculus) (UniProt Q9EPB4); experiment: Binding affinity to ASC in LPS-stimulated mouse N9 cells at 10 to 30 uM incubated overnight by Western blot based pull down assay; type: cell-based; settings: dose 10-30 µM
T1 sequence (whole entry): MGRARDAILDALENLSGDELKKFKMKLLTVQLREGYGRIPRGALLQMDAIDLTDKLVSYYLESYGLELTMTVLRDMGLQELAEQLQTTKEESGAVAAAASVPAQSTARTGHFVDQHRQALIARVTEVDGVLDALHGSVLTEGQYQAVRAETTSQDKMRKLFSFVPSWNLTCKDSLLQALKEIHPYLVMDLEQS

N9 [7] = experiment: Binding affinity to NLRP3 in LPS-stimulated mouse N9 cells at 10 to 30 uM incubated overnight by Western blot based pull down assay; type: cell-based; settings: dose 10-30 µM

SMILES: CC[C@H](C)[C@H](NC(=O)[C@H](Cc1c[nH]c2ccccc12)NC(=O)[C@@H](N)C(C)C)C(=O)N[C@@H](CC(C)C)C(=O)N[C@@H](C)C(=O)N[C@@H](CCCCN)C(=O)N[C@@H](C)C(=O)N[C@@H](CCC(N)=O)C(=O)N[C@@H](CCCNC(=N)N)C(=O)N[C@@H](CC(=O)O)C(=O)O (H-VWILAKAQRD-OH)
- Activity [1]: Non-toxic

SMILES: CC[C@H](C)[C@H](NC(=O)[C@H](C)NC(=O)[C@H](C)NC(=O)[C@H](Cc1ccccc1)NC(=O)[C@@H](NC(=O)[C@H](Cc1c[nH]c2ccccc12)NC(=O)[C@@H](N)C(C)C)[C@@H](C)CC)C(=O)N[C@@H](CC(N)=O)C(=O)N[C@@H](CCCNC(=N)N)C(=O)N[C@@H](CCCNC(=N)N)C(=O)O (H-VWIFAAINRR-OH)
- inhibition (N9 [2]): Active
- Kd [3]: 0.85 µM
- inhibition (N9 [4]): Active; Better Activity Observed
- Activity [1]: Non-toxic
- inhibition (N9 [5]): Active; Better Activity Observed

SMILES: C[C@H](NC(=O)[C@@H](N)CCCCN)C(=O)N[C@@H](CCC(N)=O)C(=O)N[C@@H](CCCNC(=N)N)C(=O)N[C@@H](CC(=O)O)C(=O)O (H-KAQRD-OH)
- Activity [1]: Non-toxic

SMILES: CSCC[C@H](NC(=O)[C@@H](N)CO)C(=O)N[C@@H](CC(=O)O)C(=O)N[C@@H](C)C(=O)N[C@@H](CC(C)C)C(=O)N[C@@H](CC(=O)O)C(=O)N[C@@H](CC(C)C)C(=O)N[C@H](C(=O)N[C@@H](CC(=O)O)C(=O)N[C@@H](CCCCN)C(=O)N[C@@H](CC(C)C)C(=O)N[C@H](C(=O)N[C@@H](CO)C(=O)O)C(C)C)[C@@H](C)O (H-SMDALDLTDKLVS-OH)
- Activity [1]: Non-toxic

SMILES: CSCC[C@H](NC(=O)[C@H](CO)NC(=O)[C@H](C)NC(=O)[C@@H](NC(=O)[C@H](CC(C)C)NC(=O)[C@H](CC(N)=O)NC(=O)[C@H](CCC(=O)O)NC(=O)[C@H](CC(C)C)NC(=O)[C@H](C)NC(=O)[C@@H](N)CC(=O)O)[C@@H](C)O)C(=O)N[C@@H](CC(=O)O)C(=O)O (H-DALENLTASMD-OH)
- Activity [1]: Non-toxic

SMILES: C[C@H](NC(=O)[C@@H](N)CCCCN)C(=O)N[C@@H](CCCCN)C(=O)N[C@@H](CCCNC(=N)N)C(=O)N[C@@H](CC(=O)O)C(=O)O (H-KAKRD-OH)
- inhibition (N9 [4]): Active
- Activity [1]: Non-toxic
- inhibition (N9 [5]): Active

SMILES: CC[C@H](C)[C@H](NC(=O)[C@H](Cc1c[nH]c2ccccc12)NC(=O)[C@@H](N)C(C)C)C(=O)N[C@@H](Cc1ccccc1)C(=O)N[C@@H](C)C(=O)N[C@@H](CCCCN)C(=O)N[C@@H](C)C(=O)N[C@@H](CCCCN)C(=O)N[C@@H](CCCNC(=N)N)C(=O)N[C@@H](CC(=O)O)C(=O)O (H-VWIFAKAKRD-OH)
- inhibition (N9 [4]): Active
- Activity [1]: Non-toxic
- inhibition (N9 [5]): Active

SMILES: CC[C@H](C)[C@H](NC(=O)[C@H](C)NC(=O)[C@H](C)NC(=O)[C@H](CC(C)C)NC(=O)[C@@H](NC(=O)[C@H](Cc1c[nH]c2ccccc12)NC(=O)[C@@H](NC(=O)CCCC[C@@H]1SC[C@@H]2NC(=O)N[C@@H]21)C(C)C)[C@@H](C)CC)C(=O)N[C@@H](CC(N)=O)C(=O)N[C@@H](CCCNC(=N)N)C(=O)N[C@@H](CCCNC(=N)N)C(=O)O (Biotin-VWILAAINRR-OH)
- Activity [6]: Active
- Activity (N9 [7]): inactive

SMILES: CC[C@H](C)[C@H](NC(=O)[C@H](CCSC)NC(=O)[C@H](CC(C)C)NC(=O)[C@@H](NC(=O)[C@H](C)NC(=O)[C@H](CC(C)C)NC(=O)[C@@H](N)CC(=O)O)[C@@H](C)O)C(=O)N[C@@H](CC(=O)O)C(=O)N[C@@H](Cc1ccccc1)C(=O)O (H-DLATLMIDF-OH)
- Activity [1]: Non-toxic

SMILES: CC(C)C[C@H](NC(=O)[C@H](C)NC(=O)[C@@H](N)CC(=O)O)C(=O)N[C@@H](CCC(=O)O)C(=O)N[C@@H](CC(N)=O)C(=O)O (H-DALEN-OH)
- Activity [1]: Non-toxic

SMILES: CC[C@H](C)[C@H](NC(=O)[C@H](CS)NC(=O)CNC(=O)[C@@H](N)CCCCN)C(=O)N1CCC[C@H]1C(=O)N[C@@H](CC(C)C)C(=O)N1CCC[C@H]1C(=O)N[C@@H](CCCNC(=N)N)C(=O)O (H-KGCIPLPR-OH)
- Activity [1]: Non-toxic
